The nature of data set [1]: Bioavailability in rat. The format is ADME, organism-based. To be noted: in vivo.
Data set [2] is described as follows: Half life period in rat. The format is ADME, organism-based. The note with it: in vivo.
The target in data set [3] is Glutamate receptor ionotropic, NMDA 2A (Homo sapiens, UniProt Q05586+Q12879). Kind of data set: Inhibition of the response to NMDA glutamate/glycine receptor NR2A subtype was determined using FLIPR assay.
Data set [4] deals with T1, Glutamate receptor ionotropic, NMDA 2B (Homo sapiens, UniProt Q05586+Q13224). Kind of data set: Inhibition of the response to NMDA glutamate/glycine receptor NR2B subtype was determined using FLIPR assay.
T1 sequence (Q13224 whole entry, one chain of several): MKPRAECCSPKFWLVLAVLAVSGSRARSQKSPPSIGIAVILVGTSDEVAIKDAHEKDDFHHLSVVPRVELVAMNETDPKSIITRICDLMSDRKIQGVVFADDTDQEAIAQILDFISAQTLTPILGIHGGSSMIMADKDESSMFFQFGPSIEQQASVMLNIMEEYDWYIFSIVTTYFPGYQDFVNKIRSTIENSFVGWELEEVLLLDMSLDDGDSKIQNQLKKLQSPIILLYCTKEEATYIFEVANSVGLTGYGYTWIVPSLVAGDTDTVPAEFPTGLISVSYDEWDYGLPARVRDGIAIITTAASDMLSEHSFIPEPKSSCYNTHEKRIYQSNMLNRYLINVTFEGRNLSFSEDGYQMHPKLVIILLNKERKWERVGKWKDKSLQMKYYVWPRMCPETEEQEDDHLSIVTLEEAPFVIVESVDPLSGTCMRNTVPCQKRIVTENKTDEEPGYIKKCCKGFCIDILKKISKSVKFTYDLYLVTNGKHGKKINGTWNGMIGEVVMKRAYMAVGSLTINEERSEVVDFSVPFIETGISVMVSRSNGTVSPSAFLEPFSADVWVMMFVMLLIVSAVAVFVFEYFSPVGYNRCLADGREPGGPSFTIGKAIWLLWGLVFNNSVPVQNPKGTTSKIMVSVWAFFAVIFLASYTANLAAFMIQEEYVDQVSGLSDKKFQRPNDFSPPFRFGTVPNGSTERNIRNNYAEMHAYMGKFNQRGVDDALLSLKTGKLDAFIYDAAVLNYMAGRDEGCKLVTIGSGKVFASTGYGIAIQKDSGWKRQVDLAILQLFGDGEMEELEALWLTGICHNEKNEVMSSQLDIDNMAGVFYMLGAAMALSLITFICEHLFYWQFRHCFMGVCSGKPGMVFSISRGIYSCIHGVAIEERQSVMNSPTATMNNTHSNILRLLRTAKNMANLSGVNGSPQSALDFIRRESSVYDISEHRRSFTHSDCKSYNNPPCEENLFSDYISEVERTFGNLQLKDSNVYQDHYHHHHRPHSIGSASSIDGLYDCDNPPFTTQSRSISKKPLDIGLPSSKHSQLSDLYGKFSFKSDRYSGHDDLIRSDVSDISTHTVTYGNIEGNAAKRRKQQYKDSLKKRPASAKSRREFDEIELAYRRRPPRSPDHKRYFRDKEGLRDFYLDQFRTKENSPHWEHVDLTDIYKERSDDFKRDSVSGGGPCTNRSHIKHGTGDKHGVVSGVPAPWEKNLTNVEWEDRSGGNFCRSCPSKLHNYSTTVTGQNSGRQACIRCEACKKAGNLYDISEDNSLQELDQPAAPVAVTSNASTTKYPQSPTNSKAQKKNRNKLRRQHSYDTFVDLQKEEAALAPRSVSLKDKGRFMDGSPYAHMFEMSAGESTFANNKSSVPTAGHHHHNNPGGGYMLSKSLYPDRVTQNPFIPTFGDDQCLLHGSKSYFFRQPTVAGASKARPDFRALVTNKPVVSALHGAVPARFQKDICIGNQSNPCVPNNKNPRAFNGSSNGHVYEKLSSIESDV
The target of data set [5] is T1, Glutamate receptor ionotropic, NMDA 2B. Kind of data set: Displacement of NMDA receptor-specific [3H]ifenprodil binding to recombinant human NMDA receptor, NR2B subtype expressed in L cells. Format: cell-based.
The test system of the next data set is Rattus norvegicus. Nature of the data set: Efficacy was determined by scoring behavioral responses to noxious stimuli in carrageenan-induced hyperalgesia assay in the rat after oral administration. Format: functional.

Glutamate receptor ionotropic, NMDA 2A, sequence (Q12879 whole entry, one chain of several): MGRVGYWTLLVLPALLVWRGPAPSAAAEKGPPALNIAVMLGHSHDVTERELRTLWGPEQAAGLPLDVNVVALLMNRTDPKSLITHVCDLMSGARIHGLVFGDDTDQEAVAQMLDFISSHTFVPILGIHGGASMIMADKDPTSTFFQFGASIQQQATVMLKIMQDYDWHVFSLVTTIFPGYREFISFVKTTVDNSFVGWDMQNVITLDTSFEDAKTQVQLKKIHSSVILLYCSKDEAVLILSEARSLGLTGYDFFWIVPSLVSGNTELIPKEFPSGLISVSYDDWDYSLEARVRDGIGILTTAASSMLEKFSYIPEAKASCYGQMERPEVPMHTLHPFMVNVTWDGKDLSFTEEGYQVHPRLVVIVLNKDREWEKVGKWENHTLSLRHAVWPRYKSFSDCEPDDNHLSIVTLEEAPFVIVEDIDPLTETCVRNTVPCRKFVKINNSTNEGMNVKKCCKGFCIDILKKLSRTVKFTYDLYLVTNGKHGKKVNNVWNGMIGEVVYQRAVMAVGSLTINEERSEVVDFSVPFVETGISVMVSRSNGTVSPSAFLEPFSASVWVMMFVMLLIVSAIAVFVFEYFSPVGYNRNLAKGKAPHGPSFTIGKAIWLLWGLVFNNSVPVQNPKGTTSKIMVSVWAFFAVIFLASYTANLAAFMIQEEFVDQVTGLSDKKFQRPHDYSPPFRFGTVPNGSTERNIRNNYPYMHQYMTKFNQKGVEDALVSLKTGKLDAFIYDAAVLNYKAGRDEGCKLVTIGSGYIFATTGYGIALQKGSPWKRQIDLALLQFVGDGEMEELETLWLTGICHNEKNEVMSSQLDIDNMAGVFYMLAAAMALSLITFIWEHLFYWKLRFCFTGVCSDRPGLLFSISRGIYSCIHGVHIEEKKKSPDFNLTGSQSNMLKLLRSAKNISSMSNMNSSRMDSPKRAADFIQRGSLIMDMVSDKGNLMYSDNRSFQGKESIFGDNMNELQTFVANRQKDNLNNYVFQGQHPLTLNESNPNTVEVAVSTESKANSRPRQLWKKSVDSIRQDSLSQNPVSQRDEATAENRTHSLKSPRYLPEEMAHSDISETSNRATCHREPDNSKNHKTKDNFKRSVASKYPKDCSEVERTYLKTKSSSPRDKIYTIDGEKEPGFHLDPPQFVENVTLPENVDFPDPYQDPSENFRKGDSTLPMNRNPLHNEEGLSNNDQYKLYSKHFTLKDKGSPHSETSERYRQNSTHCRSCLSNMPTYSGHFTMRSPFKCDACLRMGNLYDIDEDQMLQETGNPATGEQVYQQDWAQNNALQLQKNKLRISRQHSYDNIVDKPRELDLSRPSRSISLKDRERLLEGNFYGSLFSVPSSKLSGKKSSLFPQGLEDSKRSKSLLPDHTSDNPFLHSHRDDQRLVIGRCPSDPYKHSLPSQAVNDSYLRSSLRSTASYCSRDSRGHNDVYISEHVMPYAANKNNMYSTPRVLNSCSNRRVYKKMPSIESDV

What is called bioavailability is the share of a dose that reaches the circulation, judged against a reference dose that is usually intravenous. A higher bioavailability goes with good availability. Usually half-life stands for the time in which the quantity being followed falls by half. Read a low half-life as fast loss. In general, IC50 refers to the concentration needed to halve the response being measured. Low values mean greater potency, high ones weaker potency. As usually defined, the Ki is a measure of affinity in units of concentration, obtained from inhibition or displacement. What is called ED50 is the dose that gives a 50% effect, or the effect in half of the subjects. `NC(=NCc1cccc(Cl)c1)c1ccc(Cl)c(Cl)c1` came in with a bioavailability in data set [1] of 44%. This compound gave a half-life in data set [2] of 1.5 h. The values for the IC50 in data set [3] and in data set [4] were over 10 µM and 0.11 µM, respectively. Further, the Ki in data set [5] came to 0.016 µM. This compound returned an ED50 with Rattus norvegicus of 14 mg/kg.
Regarding `N=C(/C=C/c1ccccc1)NCc1ccccc1`, the Ki in data set [5] is 0.009 µM.
Turning to `N=C(NCc1cccc(Cl)c1)c1ccc(Cl)cc1`, the IC50 in data set [4] worked out at 0.16 µM. Besides, the Ki in data set [5] came to 0.063 µM.
On to `NC(=NCc1cccc(Cl)c1)c1ccccc1Cl`, for which the Ki in data set [5] was determined as 3.9 µM.
Compound `N=C(NCc1ccccc1Cl)c1ccc(C(F)(F)F)cc1` came in with an IC50 in data set [4] of 0.048 µM. In data set [5], the Ki came to 0.056 µM.
The matching figures for `N=C(NCc1ccccc1)c1ccc(C(F)(F)F)cc1`: 0.36 µM and 0.48 µM.
The matching figures for `Cc1cc(C)cc(C/N=C(\N)c2ccc(C(F)(F)F)cc2)c1`: 0.0087 µM and 0.0039 µM.
`N=C(NCc1ccccc1OC(F)(F)F)c1ccc(Cl)c(Cl)c1` returned a bioavailability in data set [1] of 31%. Further, the half-life in data set [2] is 3.05 h. The IC50 in data set [3] was over 10 µM; in data set [4], 0.057 µM. For the same compound, in data set [5], the Ki turned out to be 0.012 µM. For the same compound, it took a dose of 7.5 mg/kg to reach the 50% effect level in the data set with Rattus norvegicus (ED50).
With `N=C(NCc1cccc(C(F)(F)F)c1)c1ccc(C(F)(F)F)cc1`, in data set [4], the IC50 was determined as 0.66 µM. In addition, the Ki in data set [5] stood at 0.7 µM.
`COc1ccc(C/N=C(\N)c2ccc(OC(F)(F)F)cc2)cc1`: in data set [5], the Ki stood at 1.1 µM.
As to `Cc1cc(C)cc(C/N=C(\N)c2ccc(OC(F)(F)F)cc2)c1`, the bioavailability in data set [1] turned out to be 4%. The same compound showed a half-life in data set [2] of 1.53 h. Moreover, the IC50 was over 10 µM in data set [3] and 0.0042 µM in data set [4]. The Ki in data set [5] stood at 0.0012 µM. The same compound showed an ED50 in the data set on Rattus norvegicus of over 30 mg/kg.
Take `NC(=NCc1ccccc1)c1ccccc1`: the Ki in data set [5] was over 15 µM.
As for `NC(=NCc1ccccc1)c1ccc(Cl)cc1`, the IC50 in data set [4] came out at 0.72 µM. Also, the Ki in data set [5] worked out at 0.97 µM.
The matching figures for `NC(=NCc1cccc(Cl)c1)c1ccc(C(F)(F)F)cc1`: 0.032 µM and 0.02 µM.
With `NC(=NCc1cccc(Cl)c1)c1ccccc1F`, the Ki in data set [5] is over 15 µM.
In data set [1], `NC(=NCc1ccccc1C(F)(F)F)c1ccc(OC(F)(F)F)cc1` yielded a bioavailability of 100%. The half-life in data set [2] is 2.45 h. Also, the IC50 in data set [3] is over 10 µM; in data set [4] it was 0.047 µM. For the same compound, the Ki in data set [5] amounted to 0.072 µM. The compound also showed an ED50 in the data set with Rattus norvegicus of 5.5 mg/kg.
For the compound `N=C(NCc1ccccc1)c1ccc(-c2ccccc2)cc1`, the Ki in data set [5] turned out to be 1.8 µM.
As for `N=C(NCc1ccccc1)c1ccc(OC(F)(F)F)cc1`, the midpoint of inhibition in data set [4], the IC50, lay at 0.046 µM. Further, the Ki in data set [5] was 0.12 µM.
With `N=C(NCc1cc(Cl)cc(Cl)c1)c1ccc(OC(F)(F)F)cc1`, in data set [1], the bioavailability was 68%. Also, the half-life in data set [2] came out at 7 h. Further, the results for the half-inhibitory concentration (IC50) in data set [3] and in data set [4] were over 10 µM and 0.024 µM, respectively. Moreover, in data set [5], the Ki worked out at 0.0006 µM. In addition, in the data set with Rattus norvegicus, it took a dose of 16 mg/kg to reach the 50% effect level (ED50).
Compound `COc1ccccc1C/N=C(\N)c1ccc(OC(F)(F)F)cc1` returned an IC50 in data set [4] of 0.0041 µM. Further, the Ki in data set [5] stood at 0.0057 µM.
For the compound `N=C(NCc1cccc(Cl)c1)c1ccc(F)cc1`, the IC50 in data set [4] came out at 0.45 µM. In addition, the Ki in data set [5] worked out at 0.6 µM.
The matching figures for `NC(=NCc1cccc(Cl)c1)c1cccc(Cl)c1`: 0.42 µM and 0.8 µM.
Compound `COc1cccc(C/N=C(\N)c2ccc(OC(F)(F)F)cc2)c1` showed an IC50 in data set [4] of 0.0097 µM. In data set [5], the Ki came out at 0.023 µM.
For the compound `N=C(NCc1cccc(Cl)c1)c1cccc(F)c1`, the Ki in data set [5] was 2 µM.

(Values after ChEMBL document CHEMBL1136592, “Orally efficacious NR2B-selective NMDA receptor antagonists” (Bioorg Med Chem Lett, 2003).)
